{"source": "paper PMC5151175", "about": "(Journal of medicinal chemistry, 2016)", "key": {"HIV-1/NL4-3": {"test_system": "HIV-1/NL4-3", "assay_type": "cell-based", "details": "for IC50 NL4-3: wild-type HIV-1/NL4-3 replication, mean ± SD of three separate experiments, NS = no selective anti-HIV activity (CC50/IC50 < 5)"}, "HIV-1 integrase": {"test_system": "HIV-1 integrase", "details": "cited from earlier work"}, "[1]": {"test_system": "NL4-3 Env-mediated cell–cell fusion", "assay": "fusion assay", "assay_type": "cell-based, HIV-1", "details": "average of two independent tests"}, "[2]": {"test_system": "NL4-3 infection of TZM-bl cells", "assay": "TZM-bl assay", "assay_type": "cell-based, HIV-1", "details": "at 2 µM; average of two tests"}, "[3]": {"details": "human, in vivo; cited from earlier work"}, "HIV in MT-4 cells": {"test_system": "HIV in MT-4 cells", "details": "cited from earlier work; for IC50: read-out: IC50, anti-HIV activity in MT-4 cells"}, "[4]": {"test_system": "HIV replication in MT-2 cell", "details": "read-out: IC50, HIV replication in MT-2 cells; cited from earlier work"}, "NL4-3/V370A": {"test_system": "NL4-3/V370A", "assay_type": "cell-based, HIV-1", "details": "IC50(NL4-3/V370A)/IC50(NL4-3) ratio"}, "in vitro metabolic": {"assay": "in vitro metabolic", "assay_type": "in vitro ADME", "details": "human, microsomes"}}, "note": "Entries after “also recorded” stand apart in the source; their conditions may differ."}
{"compound": "O=C(O)/C=C/c1ccc(O)c(O)c1", "note": "[compound 5, 3,4-dihydroxycinnamic acid]", "values": [{"measurement": "IC50 NL4-3", "setting": "HIV-1/NL4-3", "result": "no selectivity"}]}
{"compound": "O=C(/C=C/c1ccc(O)c(O)c1)O[C@@H]1C[C@](O)(C(=O)O)C[C@@H](OC(=O)/C=C/c2ccc(O)c(O)c2)[C@H]1O", "note": "[compound 8, 3,5-Dicaffeoylquinic acid]", "values": [{"measurement": "HIV-1 integrase inhibitory activity", "setting": "HIV-1 integrase", "result": "active against HIV-1 integrase"}]}
{"compound": "C=C(C)[C@@H]1CC[C@]2(C(=O)O)CC[C@]3(C)[C@H](CC[C@@H]4[C@@]5(C)CC[C@H](OC(=O)CC(C)(C)C(=O)O)C(C)(C)[C@@H]5CC[C@]43C)[C@@H]12", "note": "[compound 2, 3-O-(3′,3′-dimethylsuccinyl)-betulinic acid]", "values": [{"measurement": "inhibition of NL4-3 Env-mediated cell–cell fusion", "setting": "[1]", "result": "no activity"}, {"measurement": "inhibition of NL4-3 infection of TZM-bl cells", "setting": "[2]", "result": "no inhibition"}, {"measurement": "elimination half-life t1/2", "setting": "[3]", "result": "56.3 to 69.5", "unit": "h"}]}
{"compound": "(+)-erythro-7′-methylcarolignan E [11a]", "values": [{"measurement": "IC50", "setting": "HIV in MT-4 cells", "result": 6.3, "unit": "µM"}]}
{"compound": "(−)-erythro-7′-methylcarolignan E [11b]", "values": [{"measurement": "IC50", "setting": "HIV in MT-4 cells", "result": 5.3, "unit": "µM"}]}
{"compound": "C=C(C)[C@@H]1CC[C@]2(C(=O)NCCCCCCCNC(C)=O)CC[C@]3(C)[C@H](CC[C@@H]4[C@@]5(C)CC[C@H](O)C(C)(C)[C@@H]5CC[C@]43C)[C@@H]12", "note": "[A43D]", "values": [{"measurement": "inhibition of NL4-3 Env-mediated cell–cell fusion", "setting": "[1]", "result": "strongly inhibited"}, {"measurement": "inhibition of NL4-3 infection of TZM-bl cells", "setting": "[2]", "result": "totally inhibited"}]}
{"compound": "L-Chicoric acid [compound 9]", "values": [{"measurement": "IC50", "setting": "[4]", "result": 4.2, "unit": "µM"}]}
{"compound": "O=C(/C=C/c1ccc2c(c1)OCO2)N1CCNCC1", "note": "[14c]", "values": [{"measurement": "IC50 NL4-3", "setting": "HIV-1/NL4-3", "result": "inactive"}]}
{"compound": "O=C(/C=C/c1cc(O)c(O)cc1[N+](=O)[O-])O[C@H](Cc1cc(O)c(O)cc1[N+](=O)[O-])C(=O)O", "note": "[compound 6, 6′,6″-Dinitrorosmarinic acid]", "values": [{"measurement": "anti-HIV activity in MT-4 cells", "setting": "HIV in MT-4 cells", "result": "moderate anti-HIV activity"}, {"measurement": "HIV-1 integrase inhibition", "setting": "HIV-1 integrase", "result": "potent HIV-1 integrase inhibition"}]}
{"compound": "C=C(C)[C@@H]1CC[C@]2(C(=O)N3CCN(C(=O)/C=C/c4ccc5c(c4)OCO5)CC3)CC[C@]3(C)[C@H](CC[C@@H]4[C@@]5(C)CC[C@H](OC(=O)CC(C)(C)C(=O)O)C(C)(C)[C@@H]5CC[C@]43C)[C@@H]12", "note": "[18c]", "values": [{"measurement": "RFC (resistance fold change)", "setting": "NL4-3/V370A", "result": 7.89}, {"measurement": "inhibition of NL4-3 Env-mediated cell–cell fusion", "setting": "[1]", "result": "no activity; also recorded: did not inhibit"}, {"measurement": "inhibition of NL4-3 infection of TZM-bl cells", "setting": "[2]", "result": "no inhibition; also recorded: no activity"}, {"measurement": "microsomal CLint", "setting": "in vitro metabolic", "result": 54, "unit": "µL/min/mg"}]}
{"compound": "C=C(C)[C@@H]1CC[C@]2(C(=O)N3CCNCC3)CC[C@]3(C)[C@H](CC[C@@H]4[C@@]5(C)CC[C@H](OC(=O)CC(C)(C)C(=O)O)C(C)(C)[C@@H]5CC[C@]43C)[C@@H]12", "note": "[compound 20]", "values": [{"measurement": "fold less active than 2 against NL4-3", "setting": "HIV-1/NL4-3; compared with 2", "result": 8, "unit": "fold"}]}
{"compound": "O=C(/C=C/c1ccc(O)c2c1[C@H](C(=O)O)[C@@H](c1ccc(O)c(O)c1)O2)O[C@H](Cc1ccc(O)c(O)c1)C(=O)O", "note": "[compound 7, (+)-Lithospermic acid]", "values": [{"measurement": "HIV-1 integrase inhibitory activity", "setting": "HIV-1 integrase", "result": "submicromolar range"}]}
